Test results: patent US20240290976A1, “CYCLOTETRABENZIL COMPOUNDS FOR ELECTROCHEMICAL LITHIUM-ION STORAGE” (UNIVERSITY OF HOUSTON SYSTEM, priority 2023, published 2024)
Converted amounts (≈) assume the structure as drawn. “And” between values parts separate entries of the source, which are not always exact repeats. Identical values can stand only once.

Legend:
[1] = Solubility tests in 0.5M LiTFSI DME/DOL electrolyte; assay type: physicochemical; settings: 0.5M LiTFSI in DME/DOL (v:v=1:1)
Experimental: In an argon-filled glovebox, certain mass of compounds 1-4 solids were added to vials. Then, 0.5M solution of LiTFSI in DME/DOL (v:v=1:1) was slowly added dropwise and the mixture was manually stirred until all material visibly dissolved. The amount of LiTFSI solution used was recorded to determine the solubility of each compound in the electrolyte. The order of solubility from highest to lowest is compound 4 (163.7 mmol L^−1), compound 1 (12.48 mmol L^−1), compound 2 (3.57 mmol L^−1), and compound 3 (2.76 mmol L^−1).

[2] = UV-vis of soaked solutions from cathode/separator at 50% state-of-discharge; assay type: physicochemical; settings: ~360 nm; 50% state-of-charge; DME/DOL
Experimental: The CR2032 coin cell with cathode 2 or cathode 4 was discharged at the rate of 100 mA g^−1 until 50% state-of-discharge and was disassembled in an argon-filled glovebox. Then, the cathode and separator were immersed into 1.0 mL DME/DOL(1/1 v %) solvent for 6h. For the UV-vis absorption measurements, 30 μL of solution was extracted from the soaked vials and diluted with 3000 μL of DME/DOL solvent.

Row | SMILES | solubility in the electrolyte [1] | melting point | absorbance intensity of soaked solution, higher than that of compound 2 [2]
1 | O=C1C(=O)c2ccc(cc2)C(=O)C(=O)c2ccc(cc2)C(=O)C(=O)c2ccc(cc2)C(=O)C(=O)c2ccc1cc2 [compound 1] | 12.48 mM (≈ 6600 µg/mL) | – | –
2 | O=C1C(=O)c2ccc3cc(ccc3c2)C(=O)C(=O)c2ccc3cc(ccc3c2)C(=O)C(=O)c2ccc3cc(ccc3c2)C(=O)C(=O)c2ccc3cc1ccc3c2 [compound 2] | 3.6 ± 0.1 mM and 3.57 mM | > 360 °C (dec.) | –
3 | O=C1C(=O)c2ccc(cc2)-c2ccc(cc2)C(=O)C(=O)c2ccc(cc2)-c2ccc(cc2)C(=O)C(=O)c2ccc(cc2)-c2ccc(cc2)C(=O)C(=O)c2ccc(cc2)-c2ccc1cc2 [compound 3] | 2.76 mM (≈ 2300 µg/mL) | 332 to 334 °C | –
4 | O=C(C(=O)c1ccc2ccccc2c1)c1ccc2ccccc2c1 [compound 4, 1,2-bis(2-naphthyl)ethan-1,2-dione, reference compound] | 164 ± 1 mM and 163.7 mM | – | 300%
